The target in the experiment is T1, KATP channels (Homo sapiens, UniProt O60706+Q14654).
T1 construct: TE671 human medulloblastoma cells were obtained from ATCC; host or cells: TE671 human medulloblastoma cells
T1 sequence (O60706 1-1549 isoform O60706-2): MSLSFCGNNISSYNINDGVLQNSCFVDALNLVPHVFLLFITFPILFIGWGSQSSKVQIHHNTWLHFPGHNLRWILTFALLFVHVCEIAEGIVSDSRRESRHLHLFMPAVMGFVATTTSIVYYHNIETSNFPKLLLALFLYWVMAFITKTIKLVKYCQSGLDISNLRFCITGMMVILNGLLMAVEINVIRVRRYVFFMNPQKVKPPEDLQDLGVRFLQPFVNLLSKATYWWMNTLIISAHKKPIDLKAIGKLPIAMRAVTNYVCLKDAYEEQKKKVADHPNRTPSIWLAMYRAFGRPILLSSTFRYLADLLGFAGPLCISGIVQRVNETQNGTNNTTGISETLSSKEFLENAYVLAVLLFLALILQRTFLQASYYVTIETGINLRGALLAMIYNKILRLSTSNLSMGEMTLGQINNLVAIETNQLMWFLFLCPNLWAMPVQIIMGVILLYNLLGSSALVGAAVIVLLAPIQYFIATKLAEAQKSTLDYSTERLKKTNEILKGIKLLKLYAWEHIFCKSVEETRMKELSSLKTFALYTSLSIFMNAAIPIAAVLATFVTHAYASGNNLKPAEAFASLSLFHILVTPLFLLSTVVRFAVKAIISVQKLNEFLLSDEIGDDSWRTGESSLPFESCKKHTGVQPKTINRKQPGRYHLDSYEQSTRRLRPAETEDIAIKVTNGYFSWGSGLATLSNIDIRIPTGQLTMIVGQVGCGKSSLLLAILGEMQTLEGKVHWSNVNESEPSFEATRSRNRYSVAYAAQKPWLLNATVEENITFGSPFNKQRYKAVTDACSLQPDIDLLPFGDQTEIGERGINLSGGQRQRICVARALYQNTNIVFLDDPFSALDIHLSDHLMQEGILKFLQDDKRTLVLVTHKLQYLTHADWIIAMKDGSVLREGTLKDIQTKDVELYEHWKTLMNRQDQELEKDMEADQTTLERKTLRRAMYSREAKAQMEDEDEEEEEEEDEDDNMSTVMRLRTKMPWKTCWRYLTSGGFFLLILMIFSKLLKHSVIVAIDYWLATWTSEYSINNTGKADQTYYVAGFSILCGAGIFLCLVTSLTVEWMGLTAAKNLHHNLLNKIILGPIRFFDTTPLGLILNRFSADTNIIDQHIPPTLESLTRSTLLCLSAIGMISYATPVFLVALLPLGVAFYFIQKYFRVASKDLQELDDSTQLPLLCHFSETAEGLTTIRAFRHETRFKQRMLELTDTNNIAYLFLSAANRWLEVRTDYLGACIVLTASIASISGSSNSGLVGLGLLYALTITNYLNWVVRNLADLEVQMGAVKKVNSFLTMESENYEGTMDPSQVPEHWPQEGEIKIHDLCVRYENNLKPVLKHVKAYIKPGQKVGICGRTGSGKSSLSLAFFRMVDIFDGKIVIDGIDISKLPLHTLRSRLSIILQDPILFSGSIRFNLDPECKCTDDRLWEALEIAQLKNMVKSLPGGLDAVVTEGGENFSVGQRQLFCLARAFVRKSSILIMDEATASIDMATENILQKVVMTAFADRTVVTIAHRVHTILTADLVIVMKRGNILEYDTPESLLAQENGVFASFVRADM
T1 sequence (Q14654 whole entry): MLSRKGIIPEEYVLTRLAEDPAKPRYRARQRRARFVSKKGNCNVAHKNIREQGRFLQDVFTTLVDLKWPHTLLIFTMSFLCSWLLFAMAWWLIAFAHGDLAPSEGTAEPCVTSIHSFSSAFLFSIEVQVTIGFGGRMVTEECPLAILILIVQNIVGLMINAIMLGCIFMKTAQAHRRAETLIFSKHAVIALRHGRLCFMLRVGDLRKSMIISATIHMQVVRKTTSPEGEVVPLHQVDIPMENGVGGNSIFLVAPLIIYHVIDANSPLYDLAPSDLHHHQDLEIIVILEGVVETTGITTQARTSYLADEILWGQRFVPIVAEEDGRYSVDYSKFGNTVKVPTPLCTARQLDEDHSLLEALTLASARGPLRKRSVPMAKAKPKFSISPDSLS
As to the kind of experiment: Potassium Channel Assay (FLIPR membrane potential, TE671 cells). It counts as cell-based. The note with it: TE671 human medulloblastoma cells, Membrane Potential Assay Dye, room temperature, hyperpolarization from KATP channel opening. In short, it runs like this: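 Human medulloblastoma cells plated day before at 50K/well, loaded 15–30 min with membrane potential dye in HEPES buffer (2 mM KCl, 2 mM CaCl2, 5 mM glucose) at room temperature. Compound-induced hyperpolarization (fluorescence decrease) monitored 3 min; 5 μM glyburide then added to confirm KATP opener specificity.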
`CCN(CC)C(=O)c1ccc2c(c1)[C@@H](Nc1noc3ccc(Cl)cc13)[C@H](O)C(C)(C)O2` [Compound 89, 4R-(5-Chloro-benzo[d]isoxazol-3-ylamino)-3S-hydroxy-2,2-dimethyl-chroman-6-carboxylic acid diethylamide] registered an EC50 above 30 µM.
`CCN(CC)C(=O)c1ccc2c(c1)[C@@H](Oc1noc3cc(Cl)ccc13)[C@H](O)C(C)(C)O2` [Compound 90, 4R-(6-Chloro-benzo[d]isoxazol-3-yloxy)-3S-hydroxy-2,2-dimethyl-chroman-6-carboxylic acid diethylamide] returned an EC50 above 30 µM.
`CC1(C)Oc2cc(Cl)c(Cl)cc2[C@@H](Nc2noc3ccc(Cl)cc23)[C@@H]1O` [Compound 91, 6,7-Dichloro-4R-(5-chloro-benzo[d]isoxazol-3-ylamino)-2,2-dimethyl-chroman-3S-ol] gave an EC50 of 24.8 µM.
The value for `CC1(C)Oc2ccc(C(=O)c3ccccc3)cc2[C@@H](Nc2noc3ccc(Cl)cc23)[C@@H]1O` [Compound 92, [4R-(5-Chloro-benzo[d]isoxazol-3-ylamino)-3S-hydroxy-2,2-dimethyl-chroman-6-yl]-phenyl-methanone] was 20.4 µM.
In the case of `CC1(C)Oc2cc(Cl)c(Cl)cc2[C@@H](Oc2noc3cc(Cl)ccc23)[C@@H]1O` [Compound 93, 6,7-Dichloro-4R-(6-chloro-benzo[d]isoxazol-3-yloxy)-2,2-dimethyl-chroman-3S-ol] it was 20.5 µM; in that of `CC1(C)Oc2cc(Cl)c(Cl)cc2[C@@H](n2oc3cc(Cl)ccc3c2=O)[C@@H]1O` [Compound 94, 6-Chloro-2-(6,7-dichloro-3S-hydroxy-2,2-dimethyl-chroman-4-yl)-R-benzo[d]isoxazol-3-one], 10.3 µM; in that of `CC1(C)Oc2ccc(C(=O)c3ccccc3)cc2[C@@H](Oc2noc3cc(Cl)ccc23)[C@@H]1O` [Compound 95], 20.7 µM.
`CC1(C)Oc2ccc(C(=O)c3ccccc3)cc2[C@@H](n2oc3cc(Cl)ccc3c2=O)[C@@H]1O` [Compound 96, 2-(6-Benzoyl-3S-hydroxy-2,2-dimethyl-chroman-4-yl)-6-chloro-4R-benzo[d]isoxazol-3-one]: the EC50 amounted to 6.45 µM.
In the case of `COc1ccc(S(=O)(=O)c2ccc3c(c2)[C@@H](Oc2noc4cc(Cl)ccc24)[C@H](O)C(C)(C)O3)cc1` [Compound 97, 4R-(6-Chloro-benzo[d]isoxazol-3-yloxy)-6-(4-methoxy-benzenesulfonyl)-2,2-dimethyl-chroman-3S-ol] it was above 30 µM.
The value for `COc1ccc(S(=O)(=O)c2ccc3c(c2)[C@@H](n2oc4cc(Cl)ccc4c2=O)[C@H](O)C(C)(C)O3)cc1` [Compound 98, 6-Chloro-2-[3S-hydroxy-6-(4-methoxy-benzenesulfonyl)-2,2-dimethyl-chroman-4-yl]-4R-benzo[d]isoxazol-3-one] was 7.33 µM; that for `CC1(C)Oc2ccc(S(=O)(=O)c3cccc(F)c3)cc2[C@@H](Oc2noc3cc(Cl)ccc23)[C@@H]1O` [Compound 99, 4R-(6-Chloro-benzo[d]isoxazol-3-yloxy)-6-(3-fluoro-benzenesulfonyl)-2,2-dimethyl-chroman-3S-ol] was 21.5 µM.
`CC1(C)Oc2ccc(S(=O)(=O)c3cccc(F)c3)cc2[C@@H](n2oc3cc(Cl)ccc3c2=O)[C@@H]1O` [Compound 100, 4R-6-Chloro-2-[6-(3-fluoro-benzenesulfonyl)-3S-hydroxy-2,2-dimethyl-chroman-4-yl]-R-benzo[d]isoxazol-3-one] returned an EC50 of 1.95 µM.
The value for `CC1(C)Oc2ccc(S(=O)(=O)c3ccc(Cl)cc3)cc2[C@@H](Oc2noc3cc(Cl)ccc23)[C@@H]1O` [Compound 101, 6-(4-Chloro-benzenesulfonyl)-4R-(6-chloro-benzo[d]isoxazol-3-yloxy)-2,2-dimethyl-chroman-3S-ol] was above 30 µM; that for `CC1(C)Oc2ccc(S(=O)(=O)c3ccc(Cl)cc3)cc2[C@@H](n2oc3cc(Cl)ccc3c2=O)[C@@H]1O` [Compound 102, 6-Chloro-2-[6-(4-chloro-benzenesulfonyl)-3S-hydroxy-2,2-dimethyl-chroman-4-yl]-R-benzo[d]isoxazol-3-one] was 7.99 µM; that for `CC1(C)Oc2ccc(S(=O)(=O)c3cccc(F)c3)cc2[C@@H](Nc2noc3ccc(Cl)cc23)[C@@H]1O` [Compound 103, 4R-(5-Chloro-benzo[d]isoxazol-3-ylamino)-6-(3-fluoro-benzenesulfonyl)-2,2-dimethyl-chroman-3S-ol] was 7.77 µM.
The compound `COc1ccc(S(=O)(=O)c2ccc3c(c2)[C@@H](Nc2noc4ccc(Cl)cc24)[C@H](O)C(C)(C)O3)cc1` [Compound 104, 4R-(5-Chloro-benzo[d]isoxazol-3-ylamino)-6-(4-methoxy-benzenesulfonyl)-2,2-dimethyl-chroman-3S-ol] had an EC50 of 25.7 µM. Against the preceding compound, the EC50 is about 3.3-fold higher.
In the case of `CC1(C)Oc2ccc(C#N)cc2[C@@H](N2C(=O)c3ccc(Cl)cc3C2=O)[C@@H]1O` [Compound 115, 4-(5-Chloro-1,3-dioxo-1,3-dihydro-isoindol-2-yl)-3-hydroxy-2,2-dimethyl-chroman-6-carbonitrile] it was 3.16 µM; in that of `CC1(C)Oc2ccc(C#N)cc2[C@@H](n2oc3cc(Cl)ccc3c2=O)[C@@H]1O` [Compound 117, 4R-(6-Chloro-3-oxo-3H-benzo[d]isoxazol-2-yl)-3S-hydroxy-2,2-dimethyl-chroman-6-carbonitrile], above 30 µM; in that of `N#Cc1ccc2c(c1)[C@@H](Oc1noc3cc(Cl)ccc13)[C@H](O)C1(CCS(=O)(=O)CC1)O2` [Compound 200, (3S,4R)-4-(6-Chloro-benzo[d]isoxazol-3-yloxy)-2,2-(tetrahydro-4-sulfonylpyranyl)-3-hydroxy-chroman-6-carbonitrile], 29.7 µM.
The value for `N#Cc1ccc2c(c1)[C@@H](NC(=O)c1cccc(Cl)c1)[C@H](O)C1(CCS(=O)(=O)CC1)O2` [Compound 201, (3S,4R)-3-Chloro-N-[6-cyano-3-hydroxy-2,2-(tetrahydro-4-sulfonylpyranyl)-chroman-4-yl]-benzamide] was above 30 µM; that for `N#Cc1ccc2c(c1)[C@@H](NC(=O)c1cccc(Cl)c1)[C@H](OC(=O)c1cccc(Cl)c1)C1(CCS(=O)(=O)CC1)O2` [Compound 202, (3S,4R)-3-Chloro-benzoic acid 4-(3-chloro-benzoylamino)-6-cyano-2,2-(tetrahydro-4-sulfonylpyranyl)-chroman-3-yl ester] was above 30 µM.

The term EC50 denotes the concentration at which the effect is half-maximal. A high value points to lower potency in that assay.

For the origin of these results see patent publication US7812183B2, “Benzopyran derivatives as potassium channel openers” (Janssen Pharmaceutica NV, priority 2005, dated 2010).
